Test results published in PMC10663540, “Structure-based discovery of dual pathway inhibitors for SARS-CoV-2 entry” (Nature Communications, 2023).
Where “and” joins values, the source holds several entries; their conditions need not be identical. Identical values can stand only once.

Assays:
TMPRSS2 = TMPRSS2 (Homo sapiens, UniProt O15393); experiment: biochemical; assay type: biochemical; conditions: Fig. 5b
human CTSB = molecular target: T1, human CTSB (Homo sapiens, UniProt P07858); experiment: biochemical
T1 construct: […]; made in house

[1] = system: SARS-CoV-2-S pseudotyped virus Omicron BA.4/BA.5; experiment: microbe, parasite or virus in culture; assay type: cell-based
[2] = system: SARS-CoV-2-S pseudotyped virus Omicron BA.2; experiment: microbe, parasite or virus in culture; assay type: cell-based
[3] = Severe acute respiratory syndrome coronavirus 2, Huh-7, read-out: Antiviral efficacy EC50 (95% CI)

Sequence of TMPRSS2 (O15393 256-492): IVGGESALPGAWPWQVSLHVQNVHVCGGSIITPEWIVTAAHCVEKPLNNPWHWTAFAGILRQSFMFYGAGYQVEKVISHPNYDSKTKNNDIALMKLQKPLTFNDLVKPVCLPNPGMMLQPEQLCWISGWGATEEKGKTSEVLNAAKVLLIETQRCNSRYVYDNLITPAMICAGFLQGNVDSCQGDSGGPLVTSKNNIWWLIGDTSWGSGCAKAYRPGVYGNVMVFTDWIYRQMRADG
Sequence of TMPRSS2 (O15393 other isoform, or with tags, fused parts or gaps): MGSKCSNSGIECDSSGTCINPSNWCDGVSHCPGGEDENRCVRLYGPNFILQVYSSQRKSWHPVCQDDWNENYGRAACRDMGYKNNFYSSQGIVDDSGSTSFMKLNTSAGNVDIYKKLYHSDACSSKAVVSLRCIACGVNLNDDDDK

With `NC(N)=Nc1ccc(C(=O)OCCN2CCN(C(=O)N[C@@H](Cc3ccccc3)C(=O)N[C@H](/C=C/S(=O)(=O)c3ccccc3)CCc3ccccc3)CC2)cc1` [212-148] the “Inhibition: TMPRSS2” value (TMPRSS2; 212-148 1953.12 nM) was 63.03% and 61.74% and 62.43%, the inhibition at 1.95312 µM (TMPRSS2; 212-148 1953.12 nM) was 61.1% and the “Inhibition: TMPRSS2” value (TMPRSS2; 212-148 3906.25 nM) was 83.44% and 83.94% and 85.49%. The inhibition at 3.90625 µM (TMPRSS2; 212-148 3906.25 nM) was 83.6%, the “Inhibition: TMPRSS2” value (TMPRSS2; 212-148 7812.5 nM) was 95.50% and 95.52% and 96.33% and the inhibition at 7.8125 µM (TMPRSS2; 212-148 7812.5 nM) was 94.8%. The “Inhibition: TMPRSS2” value (TMPRSS2; 212-148 15625 nM) was 98.35% and 96.17% and 99.57%, the inhibition at 15.625 µM (TMPRSS2; 212-148 15625 nM) was 97.8% and the “Inhibition: TMPRSS2” value (TMPRSS2; 212-148 31250 nM) was 98.24% and 98.70% and 100.24%. For the same compound, the inhibition at 31.25 µM (TMPRSS2; 212-148 31250 nM) was 97.8%, the “Inhibition: TMPRSS2” value (TMPRSS2; 212-148 62500 nM) was 98.19% and 99.09% and 100.93% and the inhibition at 62.5 µM (TMPRSS2; 212-148 62500 nM) was 98%. For the same compound, the “Inhibition: TMPRSS2” value (TMPRSS2; 212-148 125000 nM) was 98.93% and 99.03% and 99.02%, the inhibition at 125 µM (TMPRSS2; 212-148 125000 nM) was 98.3% and the “Inhibition: TMPRSS2” value (TMPRSS2; 212-148 250000 nM) was 99.15% and 99.14% and 99.60%. The inhibition at 250 µM (TMPRSS2; 212-148 250000 nM) was 98.1%, the “Inhibition: TMPRSS2” value (TMPRSS2; 212-148 500000 nM) was 100.68% and 99.05% and 100.75% and the inhibition at 500 µM (TMPRSS2; 212-148 500000 nM) was 100%. For the same compound, the “Inhibition: TMPRSS2” value (TMPRSS2; 212-148 1000000 nM) was 100.30% and 98.80% and 100.85%, the inhibition at 1000 µM (TMPRSS2; 212-148 1000000 nM) was 99.8% and the “Inhibition: TMPRSS2” value (TMPRSS2; 212-148 2000000 nM) was 100.85% and 100.05% and 100.27%. The inhibition at 2000 µM (TMPRSS2; 212-148 2000000 nM) was 99%, the “Inhibition: CTSB” value (human CTSB; 212-148 0.12207 nM, Fig. 5c) was 8.76% and 9.57% and 12.06% and the inhibition at 0.00012207 µM (human CTSB; 212-148 0.12207 nM, Fig. 5c) was 9.32%. The “Inhibition: CTSB” value (human CTSB; 212-148 0.976562 nM, Fig. 5c) was 5.21% and 6.50% and 2.50% and 12.34%, the “Inhibition: CTSB” value (human CTSB; 212-148 1.95312 nM, Fig. 5c) was 10.95% and 10.99% and 12.44% and the inhibition at 0.00195312 µM (human CTSB; 212-148 1.95312 nM, Fig. 5c) was 20.7%. For the same compound, the “Inhibition: CTSB” value (human CTSB; 212-148 7.8125 nM, Fig. 5c) was 6.62% and 15.92% and 9.45% and 14.93%, the “Inhibition: CTSB” value (human CTSB; 212-148 15.625 nM, Fig. 5c) was 29.27% and 18.56% and 15.75% and the inhibition at 0.015625 µM (human CTSB; 212-148 15.625 nM, Fig. 5c) was 20.2%. The “Inhibition: CTSB” value (human CTSB; 212-148 31.25 nM, Fig. 5c) was 38.89% and 26.87% and 33.63%, the inhibition at 0.03125 µM (human CTSB; 212-148 31.25 nM, Fig. 5c) was 31.5% and the “Inhibition: CTSB” value (human CTSB; 212-148 62.5 nM, Fig. 5c) was 49.58% and 58.40% and 54.67%. For the same compound, the inhibition at 0.0625 µM (human CTSB; 212-148 62.5 nM, Fig. 5c) was 52.1%, the “Inhibition: CTSB” value (human CTSB; 212-148 125 nM, Fig. 5c) was 77.49% and 76.59% and 75.86% and the inhibition at 0.125 µM (human CTSB; 212-148 125 nM, Fig. 5c) was 76.8%. The “Inhibition: CTSB” value (human CTSB; 212-148 250 nM, Fig. 5c) was 92.13% and 95.19% and 101.10%, the inhibition at 0.25 µM (human CTSB; 212-148 250 nM, Fig. 5c) was 95.4% and the “Inhibition: CTSB” value (human CTSB; 212-148 500 nM, Fig. 5c) was 95.97% and 101.09% and 103.70%. The inhibition at 0.5 µM (human CTSB; 212-148 500 nM, Fig. 5c) was 101%, the “Inhibition: CTSB” value (human CTSB; 212-148 1000 nM, Fig. 5c) was 100.47% and 101.20% and 101.53% and the inhibition at 1 µM (human CTSB; 212-148 1000 nM, Fig. 5c) was 98.8%. The “Inhibition: CTSB” value (human CTSB; 212-148 2000 nM, Fig. 5c) was 98.63% and 99.08% and 103.05%, the inhibition at 2 µM (human CTSB; 212-148 2000 nM, Fig. 5c) was 102% and the IC50 (human CTSB; substrate Cbz-Phe-Arg-AMC, pH 5.5, mean ± SD, four replicates) was 64.1 nM. For the same compound, the “content remaining (LC-MS)” value (after two days in the medium that contains FBS, 125 μM) was “more than 50%”, the “stability compared (in words)” value (same conditions as cell assay media) was “more stable than nafamostat” and the “Inhibition: BA.4.5/Huh-7” value ([1]; 212-148 2e-5 μM, Fig. 5d) was 20.50% and 13.32% and 20.61%. For the same compound, the “Inhibition: BA.4.5/Huh-7” value ([1]; 212-148 0.0002 μM, Fig. 5d) was 32.55% and 30.98%, the “Inhibition: BA.4.5/Huh-7” value ([1]; 212-148 0.002 μM, Fig. 5d) was 62.17% and 52.89% and the “Inhibition: BA.4.5/Huh-7” value ([1]; 212-148 0.02 μM, Fig. 5d) was 82.60% and 83.49%. The “Inhibition: BA.4.5/Huh-7” value ([1]; 212-148 0.2 μM, Fig. 5d) was 89.43% and 91.48%, the “Inhibition: BA.4.5/Huh-7” value ([1]; 212-148 2 μM, Fig. 5d) was 89.92% and 91.92% and the “Inhibition: BA.4.5/Huh-7” value ([1]; 212-148 20 μM, Fig. 5d) was 95.01% and 96.39%. The inhibition at 0.0002 µM ([1]; Severe acute respiratory syndrome coronavirus 2, Huh-7, 120 h, 212-148 0.0002 μM, Fig. 5d, read-out: Inhibition: BA.4.5/Huh-7) was 43.8%, the inhibition at 0.002 µM ([1]; Severe acute respiratory syndrome coronavirus 2, Huh-7, 120 h, 212-148 0.002 μM, Fig. 5d, read-out: Inhibition: BA.4.5/Huh-7) was 63.5% and the inhibition at 0.02 µM ([1]; Severe acute respiratory syndrome coronavirus 2, Huh-7, 120 h, 212-148 0.02 μM, Fig. 5d, read-out: Inhibition: BA.4.5/Huh-7) was 84.4%. It also gave an inhibition at 0.2 µM ([1]; Severe acute respiratory syndrome coronavirus 2, Huh-7, 120 h, 212-148 0.2 μM, Fig. 5d, read-out: Inhibition: BA.4.5/Huh-7) of 86.9%, an inhibition at 2 µM ([1]; Severe acute respiratory syndrome coronavirus 2, Huh-7, 120 h, 212-148 2 μM, Fig. 5d, read-out: Inhibition: BA.4.5/Huh-7) of 86.8% and an inhibition at 20 µM ([1]; Severe acute respiratory syndrome coronavirus 2, Huh-7, 120 h, 212-148 20 μM, Fig. 5d, read-out: Inhibition: BA.4.5/Huh-7) of 92.5%. The EC50 [1, 3] was 0.4 nM, the “Inhibition: BA.2/Huh-7” value ([2]; 212-148 0.00128 μM, Fig. 5d) was 25.89% and 19.49% and the “Inhibition: BA.2/Huh-7” value ([2]; 212-148 0.8 μM, Fig. 5d) was 91.14% and 94.17%. For the same compound, the “Inhibition: BA.2/Huh-7” value ([2]; 212-148 4 μM, Fig. 5d) was 97.31% and 97.73%, the “Inhibition: BA.2/Huh-7” value ([2]; 212-148 20 μM, Fig. 5d) was 84.53% and 89.27% and the inhibition at 0.00128 µM ([2]; Severe acute respiratory syndrome coronavirus 2, Huh-7, 120 h, 212-148 0.00128 μM, Fig. 5d) was 38.3%. For the same compound, the inhibition at 0.8 µM ([2]; Severe acute respiratory syndrome coronavirus 2, Huh-7, 120 h, 212-148 0.8 μM, Fig. 5d) was 99.7%, the inhibition at 4 µM ([2]; Severe acute respiratory syndrome coronavirus 2, Huh-7, 120 h, 212-148 4 μM, Fig. 5d) was 83.7% and the inhibition at 20 µM ([2]; Severe acute respiratory syndrome coronavirus 2, Huh-7, 120 h, 212-148 20 μM, Fig. 5d) was 97.9%. For the same compound, the EC50 [2, 3] was 5.7 nM.
